Experimental data reported in the NIST ThermoML archive (doi:10.1021/je100909b).

Assay: mn = molality of the nth substance listed, in mol/kg
Conditions: 101 kPa, Liquid; for speed of sound: Sing-around technique in a fixed-path interferometer

NCC(=O)O [2-aminoacetic acid] + O
Conditions | speed of sound [m/s] | viscosity [mPa·s]
288.15 K, m1 = 0.05362 | 1468.9 | –
288.15 K, m1 = 0.06844 | – | 1.149
288.15 K, m1 = 0.1287 | 1473.1 | –
288.15 K, m1 = 0.1393 | – | 1.159
288.15 K, m1 = 0.191 | 1476.6 | –
288.15 K, m1 = 0.2522 | 1480.1 | –
288.15 K, m1 = 0.2552 | – | 1.176
288.15 K, m1 = 0.3423 | 1485.3 | –
288.15 K, m1 = 0.3468 | – | 1.19
288.15 K, m1 = 0.4241 | – | 1.202
288.15 K, m1 = 0.5002 | – | 1.213
288.15 K, m1 = 0.5062 | 1494.9 | –
288.15 K, m1 = 0.562 | 1498.1 | –
298.15 K, m1 = 0.05362 | 1499.5 | –
298.15 K, m1 = 0.06025 | – | 0.8979
298.15 K, m1 = 0.1223 | – | 0.9055
298.15 K, m1 = 0.1287 | 1503.4 | –
298.15 K, m1 = 0.191 | 1506.8 | –
298.15 K, m1 = 0.1933 | – | 0.9138
298.15 K, m1 = 0.2522 | 1510 | –
298.15 K, m1 = 0.2798 | – | 0.9248
298.15 K, m1 = 0.3423 | 1514.9 | –
298.15 K, m1 = 0.4145 | – | 0.942
298.15 K, m1 = 0.4859 | – | 0.9507
298.15 K, m1 = 0.5062 | 1523.9 | –
298.15 K, m1 = 0.562 | 1526.9 | –
308.15 K, m1 = 0.05362 | 1522.5 | –
308.15 K, m1 = 0.06295 | – | 0.7261
308.15 K, m1 = 0.1083 | 1525.3 | –
308.15 K, m1 = 0.1248 | – | 0.7325
308.15 K, m1 = 0.1664 | 1528.2 | –
308.15 K, m1 = 0.2476 | – | 0.7455
308.15 K, m1 = 0.263 | 1533.1 | –
308.15 K, m1 = 0.3345 | – | 0.7536
308.15 K, m1 = 0.3737 | 1538.8 | –
308.15 K, m1 = 0.4195 | – | 0.7624
308.15 K, m1 = 0.4709 | – | 0.7672
308.15 K, m1 = 0.4967 | 1545.2 | –
318.15 K, m1 = 0.05362 | 1539 | –
318.15 K, m1 = 0.06088 | – | 0.6017
318.15 K, m1 = 0.1248 | – | 0.6064
318.15 K, m1 = 0.1287 | 1542.7 | –
318.15 K, m1 = 0.191 | 1545.7 | –
318.15 K, m1 = 0.2476 | – | 0.6176
318.15 K, m1 = 0.2522 | 1548.7 | –
318.15 K, m1 = 0.3345 | – | 0.6253
318.15 K, m1 = 0.3423 | 1553.1 | –
318.15 K, m1 = 0.4195 | – | 0.6329
318.15 K, m1 = 0.4709 | – | 0.6356
318.15 K, m1 = 0.5062 | 1561.3 | –
318.15 K, m1 = 0.562 | 1564.1 | –

CCC(N)C(=O)O (stereo not drawn) [(.+-.)-α-aminobutyric acid] + O
Conditions | speed of sound [m/s] | viscosity [mPa·s]
288.15 K, m1 = 0.05062 | 1469.9 | –
288.15 K, m1 = 0.05106 | – | 1.159
288.15 K, m1 = 0.09089 | – | 1.181
288.15 K, m1 = 0.1107 | 1474.7 | –
288.15 K, m1 = 0.1764 | – | 1.22
288.15 K, m1 = 0.2175 | 1483.4 | –
288.15 K, m1 = 0.2253 | – | 1.242
288.15 K, m1 = 0.2685 | – | 1.262
288.15 K, m1 = 0.2738 | 1488 | –
288.15 K, m1 = 0.3587 | 1494.9 | –
288.15 K, m1 = 0.4044 | – | 1.324
288.15 K, m1 = 0.4523 | 1502.7 | –
298.15 K, m1 = 0.03245 | – | 0.8996
298.15 K, m1 = 0.05413 | – | 0.9064
298.15 K, m1 = 0.07577 | – | 0.9126
298.15 K, m1 = 0.108 | – | 0.9222
298.15 K, m1 = 0.1107 | 1505.2 | –
298.15 K, m1 = 0.1433 | – | 0.9326
298.15 K, m1 = 0.1888 | – | 0.9459
298.15 K, m1 = 0.2162 | – | 0.9534
298.15 K, m1 = 0.2175 | 1513.6 | –
298.15 K, m1 = 0.2738 | 1518 | –
298.15 K, m1 = 0.3587 | 1524.7 | –
298.15 K, m1 = 0.4523 | 1532.1 | –
308.15 K, m1 = 0.04831 | – | 0.731
308.15 K, m1 = 0.05062 | 1523.4 | –
308.15 K, m1 = 0.08861 | – | 0.7438
308.15 K, m1 = 0.1107 | 1527.7 | –
308.15 K, m1 = 0.1735 | – | 0.7667
308.15 K, m1 = 0.2175 | 1535.4 | –
308.15 K, m1 = 0.2198 | – | 0.7794
308.15 K, m1 = 0.2655 | – | 0.7915
308.15 K, m1 = 0.2738 | 1539.4 | –
308.15 K, m1 = 0.3587 | 1545.5 | –
308.15 K, m1 = 0.3962 | – | 0.8261
308.15 K, m1 = 0.4523 | 1552.3 | –
318.15 K, m1 = 0.04911 | – | 0.6052
318.15 K, m1 = 0.05062 | 1539.9 | –
318.15 K, m1 = 0.08886 | – | 0.6122
318.15 K, m1 = 0.1107 | 1544 | –
318.15 K, m1 = 0.1735 | – | 0.6267
318.15 K, m1 = 0.2175 | 1551.2 | –
318.15 K, m1 = 0.2196 | – | 0.6354
318.15 K, m1 = 0.2658 | – | 0.6432
318.15 K, m1 = 0.2738 | 1555.1 | –
318.15 K, m1 = 0.3587 | 1560.9 | –
318.15 K, m1 = 0.3964 | – | 0.6658
318.15 K, m1 = 0.4523 | 1567.3 | –

CC(N)C(=O)O (stereo not drawn) [DL-2-aminopropanoic acid] + O
Conditions | speed of sound [m/s] | viscosity [mPa·s]
288.15 K, m1 = 0.04982 | – | 1.153
288.15 K, m1 = 0.07777 | 1471.3 | –
288.15 K, m1 = 0.1109 | – | 1.172
288.15 K, m1 = 0.1126 | 1473.8 | –
288.15 K, m1 = 0.2059 | 1480.4 | –
288.15 K, m1 = 0.2183 | – | 1.204
288.15 K, m1 = 0.2612 | – | 1.217
288.15 K, m1 = 0.3107 | – | 1.231
288.15 K, m1 = 0.3139 | 1488.1 | –
288.15 K, m1 = 0.3825 | 1493 | –
288.15 K, m1 = 0.4409 | 1497.2 | –
288.15 K, m1 = 0.4536 | – | 1.272
288.15 K, m1 = 0.5099 | – | 1.29
298.15 K, m1 = 0.07777 | 1501.8 | –
298.15 K, m1 = 0.07866 | – | 0.9082
298.15 K, m1 = 0.1126 | 1504.1 | –
298.15 K, m1 = 0.1934 | – | 0.9331
298.15 K, m1 = 0.2059 | 1510.4 | –
298.15 K, m1 = 0.3139 | 1517.7 | –
298.15 K, m1 = 0.3188 | – | 0.9584
298.15 K, m1 = 0.3825 | 1522.3 | –
298.15 K, m1 = 0.4275 | – | 0.9832
298.15 K, m1 = 0.4409 | 1526.3 | –
298.15 K, m1 = 0.5485 | – | 1.013
298.15 K, m1 = 0.593 | – | 1.018
298.15 K, m1 = 0.7354 | – | 1.057
298.15 K, m1 = 0.8417 | – | 1.072
298.15 K, m1 = 0.9533 | – | 1.089
308.15 K, m1 = 0.04619 | – | 0.7279
308.15 K, m1 = 0.07777 | 1524.6 | –
308.15 K, m1 = 0.107 | – | 0.7391
308.15 K, m1 = 0.1126 | 1526.7 | –
308.15 K, m1 = 0.2059 | 1532.4 | –
308.15 K, m1 = 0.2145 | – | 0.7583
308.15 K, m1 = 0.2578 | – | 0.7656
308.15 K, m1 = 0.3071 | – | 0.7745
308.15 K, m1 = 0.3139 | 1539.1 | –
308.15 K, m1 = 0.3489 | – | 0.7816
308.15 K, m1 = 0.3825 | 1543.4 | –
308.15 K, m1 = 0.4409 | 1547 | –
308.15 K, m1 = 0.4983 | – | 0.8076
318.15 K, m1 = 0.04529 | – | 0.6029
318.15 K, m1 = 0.07777 | 1540.9 | –
318.15 K, m1 = 0.1064 | – | 0.6119
318.15 K, m1 = 0.1126 | 1542.8 | –
318.15 K, m1 = 0.2059 | 1548.2 | –
318.15 K, m1 = 0.2141 | – | 0.6275
318.15 K, m1 = 0.2564 | – | 0.6331
318.15 K, m1 = 0.3064 | – | 0.6409
318.15 K, m1 = 0.3139 | 1554.4 | –
318.15 K, m1 = 0.3492 | – | 0.647
318.15 K, m1 = 0.3825 | 1558.4 | –
318.15 K, m1 = 0.4205 | – | 0.6561
318.15 K, m1 = 0.4409 | 1561.8 | –
